Assay results from patent US6617354B1, “Method of stabilizing and potentiating the action of anti-angiogenic substances” (priority 2000, dated 2003).

Experiments:
tumor cells [1] = assay: Potentiation of anti-cancer drugs by PUFAs in tumor cells; format: cell-based; conditions: combination with the fatty acid
[2] = system: TNF resistant L-929 tumor cells; assay: TNF resistant L-929 tumor cells in vitro; format: cell-based; conditions: for killing of TNF resistant L-929 tumor cells: in vitro; for sensitisation of TNF-resistant L-929 cells to TNF: prior treatment with the fatty acid
tumor cells [3] = assay: Mixed culture of normal and tumor cells; format: cell-based; conditions: normal and tumor cells grown together
From the text: (§1) Tumor cells are not only deficient in PUFAs but also have low rate(s) of lipid peroxidation, contain relatively large amounts of antioxidants such as vitamin E and superoxide dismutase (SOD). It is also believed that low rates of lipid peroxidation and consequent low amounts of lipid peroxides in the cells can contribute to an increase in the mitotic process which ultimately leads to an increase in cell proliferation. Thus, a deficiency of PUFAs, high amounts of antioxidants and the presence of low amounts of lipid peroxides in the tumor cells can contribute to the growth of tumor cells.

skin papilloma = assay: Skin papilloma in mice; format: in vivo; conditions: pure fatty acid or fatty acid rich oils
tumor cells [4] = assay: PUFAs on tumor cells and normal cells in vitro; format: cell-based; conditions: for tumor cell proliferation: in vitro; for selective killing of tumor cells versus normal cells: tumor cells and normal cells in vitro
From the text: as §1
Essential fatty acids are precursors of eicosanoids and are important structural components of cell membranes. They also provide the substrates for the generation of lipid peroxidation products which have an inhibitory action on cell proliferation. Tumor cells are known to have low delta-6-desaturase activity, an enzyme necessary for the desaturation of dietary linoleic acid (LA, 18:2, n-6) and alpha-linolenic acid (ALA, 18:3, n-3) to their respective products. […] This selective tumoricidal action of fatty acids seems to be mediated by free radicals and lipid peroxides.

KB-chR 8-5 cells = assay: Vincristine resistant KB-8-5 tumor cells; format: cell-based
ascitic tumor cells = assay: Ascitic tumor cells in the peritoneum of experimental animals; format: in vivo; conditions: pure fatty acid or fatty acid rich oils
hepatoma = assay: Hepatoma in rats; format: in vivo; conditions: pure fatty acid or fatty acid rich oils
bone marrow cells = assay: Side effects of gamma-radiation and cis-platinum to bone marrow cells of mice; format: in vivo
[5] = molecular target: T1, alpha/beta sub-units of ATP synthase (Homo sapiens, UniProt P06576+P25705); conditions: human umbilical vein endothelial cells; cited from earlier work
T1 construct: Using human umbilical endothelial vein endothelial cells; endogenous in cells; host or cells: human umbilical vein endothelial cells

[6] = system: subcutaneous hemangioendothelioma; conditions: mice with subcutaneous hemangioendothelioma and disseminated intravascular coagulopathy; cited from earlier work
E-selectin = conditions: proliferating endothelial cells; cited from earlier work
[7] = system: corneal plasminogen synthesis; conditions: cornea; cited from earlier work
tumor cells [8] = conditions: cited from earlier work

T1 sequence (P25705 44-553): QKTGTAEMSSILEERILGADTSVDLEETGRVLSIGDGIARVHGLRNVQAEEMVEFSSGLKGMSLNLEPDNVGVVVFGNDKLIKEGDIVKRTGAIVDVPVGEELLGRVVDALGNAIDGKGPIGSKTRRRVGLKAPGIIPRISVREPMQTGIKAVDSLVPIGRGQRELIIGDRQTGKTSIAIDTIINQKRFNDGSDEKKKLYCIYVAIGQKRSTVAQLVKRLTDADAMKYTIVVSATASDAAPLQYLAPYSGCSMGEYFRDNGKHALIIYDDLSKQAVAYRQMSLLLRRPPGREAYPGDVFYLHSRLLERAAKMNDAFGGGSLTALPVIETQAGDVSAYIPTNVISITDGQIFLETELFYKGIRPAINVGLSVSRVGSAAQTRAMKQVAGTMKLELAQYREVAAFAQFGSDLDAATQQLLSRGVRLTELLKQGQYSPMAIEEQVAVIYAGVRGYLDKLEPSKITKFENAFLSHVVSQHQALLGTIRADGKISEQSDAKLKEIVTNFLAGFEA
T1 sequence (P06576 48-529): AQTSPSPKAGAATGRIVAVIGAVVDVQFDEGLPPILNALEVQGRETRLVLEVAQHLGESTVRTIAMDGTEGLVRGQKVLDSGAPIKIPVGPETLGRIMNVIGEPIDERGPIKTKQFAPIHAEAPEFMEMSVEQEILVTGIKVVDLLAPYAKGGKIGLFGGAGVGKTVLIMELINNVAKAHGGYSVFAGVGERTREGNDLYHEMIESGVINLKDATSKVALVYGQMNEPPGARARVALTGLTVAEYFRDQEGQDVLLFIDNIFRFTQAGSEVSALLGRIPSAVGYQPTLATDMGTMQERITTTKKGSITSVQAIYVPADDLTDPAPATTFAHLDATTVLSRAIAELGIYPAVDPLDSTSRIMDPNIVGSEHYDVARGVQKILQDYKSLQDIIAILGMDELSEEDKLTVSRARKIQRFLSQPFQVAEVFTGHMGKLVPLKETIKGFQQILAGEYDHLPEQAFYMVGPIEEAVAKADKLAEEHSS
T1 sequence (P36542 26-298 partner): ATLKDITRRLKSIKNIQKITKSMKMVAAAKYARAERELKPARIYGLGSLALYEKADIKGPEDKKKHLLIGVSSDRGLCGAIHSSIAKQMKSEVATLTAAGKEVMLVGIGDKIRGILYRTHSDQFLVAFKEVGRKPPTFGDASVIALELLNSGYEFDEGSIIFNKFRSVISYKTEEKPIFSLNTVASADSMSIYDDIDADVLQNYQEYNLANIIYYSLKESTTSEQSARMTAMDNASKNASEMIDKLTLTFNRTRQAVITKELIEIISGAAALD
T1 sequence (P30049 23-168 partner): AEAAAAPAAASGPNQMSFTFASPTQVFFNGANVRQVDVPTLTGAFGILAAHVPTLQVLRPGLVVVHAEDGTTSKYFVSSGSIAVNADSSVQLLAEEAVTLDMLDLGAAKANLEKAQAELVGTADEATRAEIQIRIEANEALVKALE
T1 sequence (P56381 2-51 partner limits assumed): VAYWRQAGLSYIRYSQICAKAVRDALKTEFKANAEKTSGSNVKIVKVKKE

CCCCC/C=C\C/C=C\C/C=C\C/C=C\CCCC(=O)O [AA, arachidonic acid]
cellular uptake of anti-cancer drugs by the tumor cells (tumor cells [1]): enhance the cellular uptake
cytotoxic action of doxorubicin, vincristine and cis-platinum (tumor cells [1]): augmented
killing of TNF resistant L-929 tumor cells [2]: able to kill
sensitisation of TNF-resistant L-929 cells to TNF [2]: rendered TNF sensitive
selective tumoricidal action in mixed culture (tumor cells [3]): effective to some extent
growth of skin papilloma (skin papilloma): inhibit the growth
tumor cell proliferation (tumor cells [4]): decrease tumor cell proliferation
selective killing of tumor cells versus normal cells (tumor cells [4]): only tumor cells are killed
sensitisation of vincristine resistant KB-8-5 cells to vincristine (KB-chR 8-5 cells): made sensitive
growth of ascitic tumor cells in the peritoneum (ascitic tumor cells): inhibit the growth
formation and growth of hepatoma (hepatoma): inhibit the growth

CC/C=C\C/C=C\C/C=C\CCCCCCCC(=O)O [ALA, alpha-linolenic acid]
selective killing of tumor cells versus normal cells (tumor cells [4]): only tumor cells are killed

CCCCC/C=C\C/C=C\C/C=C\CCCCCCC(=O)O [DGLA, dihomo-GLA]
side effects of gamma-radiation and cis-platinum to bone marrow cells (bone marrow cells): prevent or ameliorate the side effects
cellular uptake of anti-cancer drugs by the tumor cells (tumor cells [1]): enhance the cellular uptake
cytotoxic action of doxorubicin, vincristine and cis-platinum (tumor cells [1]): augmented
killing of TNF resistant L-929 tumor cells [2]: able to kill
sensitisation of TNF-resistant L-929 cells to TNF [2]: rendered TNF sensitive
growth of skin papilloma (skin papilloma): inhibit the growth
tumor cell proliferation (tumor cells [4]): decrease tumor cell proliferation
selective killing of tumor cells versus normal cells (tumor cells [4]): only tumor cells are killed
sensitisation of vincristine resistant KB-8-5 cells to vincristine (KB-chR 8-5 cells): made sensitive
growth of ascitic tumor cells in the peritoneum (ascitic tumor cells): inhibit the growth
formation and growth of hepatoma (hepatoma): inhibit the growth

CC/C=C\C/C=C\C/C=C\C/C=C\C/C=C\C/C=C\CCC(=O)O [DHA, docosahexaenoic acid]
cytotoxic action of doxorubicin, vincristine and cis-platinum (tumor cells [1]): augmented

CC/C=C\C/C=C\C/C=C\C/C=C\C/C=C\CCCC(=O)O [EPA, eicosapentaenoic acid]
side effects of gamma-radiation and cis-platinum to bone marrow cells (bone marrow cells): prevent or ameliorate the side effects
cytotoxic action of doxorubicin, vincristine and cis-platinum (tumor cells [1]): augmented

CCCCC/C=C\C/C=C\C/C=C\CCCCC(=O)O [GLA, gamma-linolenic acid]
side effects of gamma-radiation and cis-platinum to bone marrow cells (bone marrow cells): prevent or ameliorate the side effects
cellular uptake of anti-cancer drugs by the tumor cells (tumor cells [1]): enhance the cellular uptake
cytotoxic action of doxorubicin, vincristine and cis-platinum (tumor cells [1]): augmented
killing of TNF resistant L-929 tumor cells [2]: able to kill
tumor cell proliferation (tumor cells [4]): decrease tumor cell proliferation
growth of ascitic tumor cells in the peritoneum (ascitic tumor cells): inhibit the growth
formation and growth of hepatoma (hepatoma): inhibit the growth

CCCCC/C=C\C/C=C\CCCCCCCC(=O)O [LA, linoleic acid]
selective killing of tumor cells versus normal cells (tumor cells [4]): only tumor cells are killed

CC\C=C/C=C/C=C/C=C\CCCCCCCC(=O)O [cis-parinaric acid]
selective killing of tumor cells versus normal cells (tumor cells [4]): only tumor cells are killed

angiostatin®
binding to alpha/beta sub-units of ATP synthase [5]: bound in a concentration-dependent, saturable manner
size of the tumor [6]: significant reduction
survival [6]: increased survival
effect on expression of E-selectin (E-selectin): 4 to 5 fold

interleukin-6: cytokine
decrease of corneal plasminogen synthesis [7]: 40%

vitamin E
free radical generation and lipid peroxidation generated by PUFAs like GLA, EPA and DHA (tumor cells [8]): completely inhibit
